3 compounds from patent US7276528B2, “Compounds for the inhibition of nitric oxide synthase” (AstraZeneca AB, priority 2001, dated 2007) can be followed below.

What is called IC50 is the concentration that gives 50% inhibition.

Structures can show the parent of a compound that is named as a salt.

Type in all cases: biochemical
Holding throughout (conditions): recombinant human enzyme expressed in E. coli; 60 min pre-incubation with NADPH; 3 μM [3H]arginine

One assay concerns the target T1, Recombinant human nNOS (Homo sapiens, UniProt P29475).
T1 construct: made in house; host or cells: E. coli (lysate)
The assay can be described thus: Screen 2: recombinant human NO synthase inhibition, L-[3H]citrulline formation (nNOS). The protocol:
(§1) Recombinant human NO synthases (iNOS, eNOS & nNOS) were expressed in E. coli and lysates were prepared in Hepes buffer (pH 7.4) containing co-factors (FAD, FMN, H4B), protease inhibitors, lysozyme and the detergent, CHAPS. These preparations were used, at suitable dilution, to assess inhibition of the various isoforms. Inhibition of NOS was determined by measuring the formation of L-[^3H]citrulline from L-[^3H]arginine using an adaptation of the method of Förstermann et al. Enzyme assays were performed in the presence of 3 μM [^3H]arginine, 1 mM NADPH and other co-factors required to support NOS activity (FAD, FMN, H4B, calmodulin, Ca^2+). […] Incubations continued for a further 60 min before the assays were quenched and [^3H]citrulline separated from unreacted substrate by chromatography on Dowex-50 W resin in a 96-well format.

Another assay addresses T2, Recombinant human eNOS (Homo sapiens, UniProt P29474).
T2 construct: made in house; host or cells: E. coli (lysate)
The assay can be described thus: Screen 2: recombinant human NO synthase inhibition, L-[3H]citrulline formation (eNOS).

The next assay deals with T3, Recombinant human iNOS (Homo sapiens, UniProt P35228).
T3 construct: made in house; host or cells: E. coli (lysate)
T3 sequence (P35228 whole entry): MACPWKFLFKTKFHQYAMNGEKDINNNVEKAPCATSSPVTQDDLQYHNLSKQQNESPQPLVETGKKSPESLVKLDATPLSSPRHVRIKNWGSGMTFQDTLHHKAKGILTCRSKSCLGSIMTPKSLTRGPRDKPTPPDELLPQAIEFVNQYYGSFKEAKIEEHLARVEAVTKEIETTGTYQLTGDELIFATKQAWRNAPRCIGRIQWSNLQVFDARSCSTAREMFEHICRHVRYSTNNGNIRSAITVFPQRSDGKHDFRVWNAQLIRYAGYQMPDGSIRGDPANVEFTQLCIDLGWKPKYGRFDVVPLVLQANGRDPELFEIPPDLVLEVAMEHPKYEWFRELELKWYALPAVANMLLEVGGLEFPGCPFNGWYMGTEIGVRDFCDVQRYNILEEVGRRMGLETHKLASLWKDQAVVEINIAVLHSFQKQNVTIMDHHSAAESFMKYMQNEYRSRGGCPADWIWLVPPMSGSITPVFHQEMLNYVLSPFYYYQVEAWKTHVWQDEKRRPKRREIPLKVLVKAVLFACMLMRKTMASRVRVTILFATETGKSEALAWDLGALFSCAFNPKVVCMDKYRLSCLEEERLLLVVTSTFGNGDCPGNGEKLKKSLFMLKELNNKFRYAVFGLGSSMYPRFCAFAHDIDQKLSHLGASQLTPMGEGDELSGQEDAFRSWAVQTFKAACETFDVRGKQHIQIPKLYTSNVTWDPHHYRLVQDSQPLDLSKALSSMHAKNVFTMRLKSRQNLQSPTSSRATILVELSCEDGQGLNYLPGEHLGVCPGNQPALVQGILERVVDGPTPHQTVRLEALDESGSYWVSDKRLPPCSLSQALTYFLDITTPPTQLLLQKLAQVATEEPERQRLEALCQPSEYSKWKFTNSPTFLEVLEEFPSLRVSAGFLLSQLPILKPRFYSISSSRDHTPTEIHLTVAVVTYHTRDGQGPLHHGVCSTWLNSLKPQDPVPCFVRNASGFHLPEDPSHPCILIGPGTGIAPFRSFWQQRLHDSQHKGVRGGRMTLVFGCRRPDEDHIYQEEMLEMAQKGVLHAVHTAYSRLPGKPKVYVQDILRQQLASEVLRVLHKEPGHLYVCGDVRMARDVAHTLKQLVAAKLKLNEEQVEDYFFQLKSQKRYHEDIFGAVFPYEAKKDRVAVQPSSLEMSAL
The assay can be described thus: Screen 2: recombinant human NO synthase inhibition, L-[3H]citrulline formation (iNOS). The method, then: as §1

T2 sequence (P29474 whole entry): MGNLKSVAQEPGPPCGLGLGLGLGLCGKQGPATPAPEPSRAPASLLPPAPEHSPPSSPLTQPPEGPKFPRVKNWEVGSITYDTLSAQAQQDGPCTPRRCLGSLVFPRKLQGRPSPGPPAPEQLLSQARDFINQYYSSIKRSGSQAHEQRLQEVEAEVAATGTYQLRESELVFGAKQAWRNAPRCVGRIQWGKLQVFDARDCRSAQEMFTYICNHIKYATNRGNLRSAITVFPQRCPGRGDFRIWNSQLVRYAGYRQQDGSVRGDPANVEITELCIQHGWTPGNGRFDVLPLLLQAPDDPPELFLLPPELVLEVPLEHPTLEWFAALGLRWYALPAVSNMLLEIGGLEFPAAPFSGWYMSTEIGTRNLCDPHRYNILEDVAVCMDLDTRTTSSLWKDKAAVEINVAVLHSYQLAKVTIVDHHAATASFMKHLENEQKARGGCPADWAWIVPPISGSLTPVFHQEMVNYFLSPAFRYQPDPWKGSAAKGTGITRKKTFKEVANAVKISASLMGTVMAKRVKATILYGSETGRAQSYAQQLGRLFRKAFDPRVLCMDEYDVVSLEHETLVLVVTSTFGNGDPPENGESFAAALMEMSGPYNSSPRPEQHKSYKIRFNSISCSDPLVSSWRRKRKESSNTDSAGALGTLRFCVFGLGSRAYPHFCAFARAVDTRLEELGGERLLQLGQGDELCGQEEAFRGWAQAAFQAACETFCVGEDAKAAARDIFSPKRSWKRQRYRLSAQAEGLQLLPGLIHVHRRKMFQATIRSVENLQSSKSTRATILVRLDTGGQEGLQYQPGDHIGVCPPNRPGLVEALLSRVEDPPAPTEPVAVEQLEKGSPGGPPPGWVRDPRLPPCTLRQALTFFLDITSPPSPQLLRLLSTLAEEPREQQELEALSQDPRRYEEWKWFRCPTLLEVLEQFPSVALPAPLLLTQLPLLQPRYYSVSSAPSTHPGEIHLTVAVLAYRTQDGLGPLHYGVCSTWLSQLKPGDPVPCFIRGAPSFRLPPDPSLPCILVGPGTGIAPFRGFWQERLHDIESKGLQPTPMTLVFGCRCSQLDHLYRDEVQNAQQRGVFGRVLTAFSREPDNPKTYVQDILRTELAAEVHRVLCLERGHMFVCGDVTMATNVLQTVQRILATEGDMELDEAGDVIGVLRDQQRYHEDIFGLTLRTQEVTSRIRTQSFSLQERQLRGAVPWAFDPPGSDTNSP
T1 sequence (P29475 whole entry): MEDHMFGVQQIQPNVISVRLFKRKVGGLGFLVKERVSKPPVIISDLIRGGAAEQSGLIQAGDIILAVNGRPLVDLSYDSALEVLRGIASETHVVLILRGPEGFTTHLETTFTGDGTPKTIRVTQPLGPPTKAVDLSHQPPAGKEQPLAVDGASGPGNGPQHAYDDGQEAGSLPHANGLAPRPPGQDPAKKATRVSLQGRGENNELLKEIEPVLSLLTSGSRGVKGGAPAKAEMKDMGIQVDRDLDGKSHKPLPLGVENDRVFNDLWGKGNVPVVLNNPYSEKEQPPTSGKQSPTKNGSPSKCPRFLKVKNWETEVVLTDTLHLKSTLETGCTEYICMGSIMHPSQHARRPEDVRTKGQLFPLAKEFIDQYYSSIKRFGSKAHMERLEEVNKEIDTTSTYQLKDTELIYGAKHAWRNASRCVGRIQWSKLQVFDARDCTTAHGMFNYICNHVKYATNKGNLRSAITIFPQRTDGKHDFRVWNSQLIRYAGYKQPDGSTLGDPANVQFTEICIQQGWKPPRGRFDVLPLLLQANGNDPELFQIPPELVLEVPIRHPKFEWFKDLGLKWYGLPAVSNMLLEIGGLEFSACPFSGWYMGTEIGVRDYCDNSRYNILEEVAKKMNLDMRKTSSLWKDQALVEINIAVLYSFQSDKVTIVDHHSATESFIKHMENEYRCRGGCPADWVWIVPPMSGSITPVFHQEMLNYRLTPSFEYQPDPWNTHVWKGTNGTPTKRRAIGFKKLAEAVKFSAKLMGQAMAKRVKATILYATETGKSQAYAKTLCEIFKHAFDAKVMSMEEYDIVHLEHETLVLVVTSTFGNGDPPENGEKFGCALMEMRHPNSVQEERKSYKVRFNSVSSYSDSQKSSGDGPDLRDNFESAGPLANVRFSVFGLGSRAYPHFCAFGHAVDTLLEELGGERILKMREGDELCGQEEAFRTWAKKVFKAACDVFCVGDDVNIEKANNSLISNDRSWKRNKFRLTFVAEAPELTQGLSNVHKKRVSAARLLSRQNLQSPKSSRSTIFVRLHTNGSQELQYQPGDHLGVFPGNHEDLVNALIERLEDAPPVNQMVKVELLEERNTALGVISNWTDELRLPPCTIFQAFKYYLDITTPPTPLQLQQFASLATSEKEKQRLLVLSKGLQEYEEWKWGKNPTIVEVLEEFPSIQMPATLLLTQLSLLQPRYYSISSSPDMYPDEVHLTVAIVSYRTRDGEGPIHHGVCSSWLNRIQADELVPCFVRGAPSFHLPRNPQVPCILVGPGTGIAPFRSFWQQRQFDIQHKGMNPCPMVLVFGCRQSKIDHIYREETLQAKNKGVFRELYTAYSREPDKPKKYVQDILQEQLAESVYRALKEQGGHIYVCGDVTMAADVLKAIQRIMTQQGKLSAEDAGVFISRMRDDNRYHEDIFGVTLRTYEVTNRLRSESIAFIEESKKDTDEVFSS

As to `CNCc1cccc(Oc2cc(Cl)ccc2C#N)c1` [Example 10, 4-Chloro-2-(3-methylaminomethyl-phenoxy)-benzonitrile fumarate], the results for the IC50 on Recombinant human nNOS, at Recombinant human eNOS and at Recombinant human iNOS were 0.0048 µM, 0.34 µM and 0.0029 µM, respectively.

With `CNCc1ccc(Oc2cc(Cl)ccc2C#N)c2ccccc12` [Example 24, 4-Chloro-2-[4-(methylaminomethyl)naphthalen-1-yloxy]benzonitrile fumarate], the IC50 was found to be 0.039 µM at Recombinant human nNOS, 5.4 µM on Recombinant human eNOS and 0.16 µM at Recombinant human iNOS.

On to `CN(C)Cc1cccc(Oc2cc(Cl)ccc2C#N)c1` [Example 25, 4-Chloro-2-[3-(dimethylaminomethyl)phenoxy]benzonitrile fumarate], for which the IC50 worked out at 0.2 µM at Recombinant human nNOS, 44 µM on Recombinant human eNOS and 0.09 µM at Recombinant human iNOS.
